Assay results taken from ChEMBL document CHEMBL1123796, “New antitumor agents containing the anthracene nucleus” (1987).

Legend:
Type in all cases: functional
RPMI-8226 [1] = assay: In vitro inhibition of human 8226 myeloma tumor cell line growth.; settings: read-out: ID50 (the source's name)
Mus musculus [2] = assay: Tested for skin toxicity in BALB/c mice at a significant dose of 0.75 mg/kg administered intraintradermally and involved concentric circular areas of erythema
Mus musculus [3] = assay: Tested for percent average weekly weight change in mice at a significant dose of 80 mg/kg administered intraperitoneally after 5 days of treatment; settings: route intraperitoneal
P388 = assay: Antileukemic activity against P-388 in mice at a dose of 100 mg/kg administered intraperitoneally after 1 day treatment; settings: Mus musculus, P388, ip, 24 h, route intraperitoneal
RPMI-8226 [4] = assay: Effect on RNA synthesis was determined by incorporation of radioligand into 8226 human myeloma cells at a concentration of 1 ug/mL. (*: >1 log cell kill)
Mus musculus [5] = assay: Tested for percent average weekly weight change in mice at a significant dose of 100 mg/kg administered intraperitoneally in mice after 5 days of treatment; settings: route intraperitoneal
Mus musculus [6] = assay: Tested for skin toxicity in BALB/c mice at a significant dose of 1.25 mg/kg administered intraintradermally and involved concentric circular areas of erythema

## CN(C)CCNCc1c2ccccc2c(CNCCN(C)C)c2ccccc12
RPMI-8226 [1]
  IC50: 160 nM
Mus musculus [2]
  Extent of skin lesions: 1.3 cm**2
Mus musculus [3]
  Average weekly weight change: -10%
P388
  ILS at 100 mg/kg: -33%
RPMI-8226 [4]
  inhibition at 1 µg/mL: 70.4%
Mus musculus [5]
  Average weekly weight change: -15%
Mus musculus [6]
  Extent of skin lesions: 2.2 cm**2
